Data set [1] in a line: Liver Microsome Stability Assay (human). Particulars: human liver microsomes, with NADPH, 1.0 uM compound. In general terms: Microsomes from liver hold many membrane-bound enzymes, among them those of drug oxidation.
Protocol: (§3) Stability of a compound was assessed in the presence of liver microsomes from various sources—mouse, rat, monkey and human liver microsomes. 1.0 uM compound, 0.4% DMSO in 0.1 M Potassium Phosphate with 1.0 mg/mL liver microsomes, were incubated at 37° C. with or without 1 mM NADPH. The samples were quenched at 0, and 30 minutes.
Data set [2] in a line: Liver Microsome Stability Assay (monkey). The settings on record: monkey liver microsomes, with NADPH, 1.0 uM compound.
Protocol: as §3
Data set [3] relates to PD1-ss+10aa/Gaussia Luciferase. Nature of the data set: Dox-Induced PD1-ss-Gluc Assay. Format: cell-based. The settings on record: 24 hr Dox induction; 293FRT/TO cells; mean; read-out: 24 hr Dox Inducible PD1ssGluc 293FRT/TO: Mean IC50. Summed up: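 Flp-In 293 T-REx, stable line; Tet-regulated PD1-ss+10aa fused to Gaussia luciferase; plated day prior; cpd + doxycycline in DMSO/media; 37 °C, 5% CO2.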

The nature of data set [4]: Liver Microsome Stability Assay (mouse). Particulars: mouse liver microsomes, with NADPH, 1.0 uM compound.
Protocol: as §3
Data set [5] relates to multiple myeloma cell line U266B1. Nature of the data set: U266 Cell Viability Assay. It counts as cell-based, human. Particulars: Homo sapiens, U-266, 48 h, U266B1 cells, Celltiter-Glo. The protocol:
(§1) The human multiple myeloma cell line U266B1 was cultured in RPMI 1640 media supplemented with 10% fetal bovine serum, 2 mM Glutamine, and 1× Penicillin/Streptomycin. Cells were plated in 384-well tissue culture plates and treated with compound dilutions in DMSO/media. Plates were incubated at 37° C., 5% CO2 for 48 hours. After 48 hours, Celltiter-Glo® (Promega) was added to each well and luciferase signal was quantified using Tecan Infinite M1000 Pro for cell viability determination.
(§2) For chemical structures that include one or more stereoisomers, but are illustrated without indicating stereochemistry, the assay data refers to a mixture of stereoisomers.
(In ATP-based viability assays light output follows the ATP content of the culture.)

Data set [6] relates to IL-2-FL/Gaussia Luciferase. Nature of the data set: Dox Induced IL2-FL-Gluc Assay. Format: cell-based. Particulars: for IC50: 24 hr Dox induction, 293FRT/TO cells, mean, read-out: 24 hr Dox Inducible IL2FLGluc 293FRT/TO: Mean IC50; for 24 hr Dox Inducible IL2FLGluc 293FRT/TO: IL2/PD1: ratio of IL2FLGluc IC50 to PD1ssGluc IC50, '<=>' given where both are I.A. Summed up: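 Compounds in DMSO/medium with doxycycline were applied to a 293 T-REx stable line expressing an IL-2 (aa 1-153)–Gaussia luciferase fusion under tetracycline-regulated control, cells seeded one day earlier; incubation at 37 °C, 5% CO2. Structures drawn without stereochemistry were tested as stereoisomer mixtures.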

Data set [7] is described as follows: Liver Microsome Stability Assay (rat). Particulars: rat liver microsomes, with NADPH, 1.0 uM compound.
Protocol: as §3
The test system of data set [8] is multiple myeloma cell line NCI-H929. The data set can be described thus: H929 Cell Viability Assay. The settings on record: Homo sapiens, NCI-H929, 48 h, NCI-H929 cells, Celltiter-Glo. It counts as cell-based, human. The protocol: as §1, with “NCI-H929” for “U266B1”, “cultured in Advanced RPMI 1640 media (Gibco®) supplemented with 6% fetal bovine serum, 2 mM Glutamine, and 1× Penicillin/Streptomycin. On the day of assay, cells were resuspended” for “cultured”, “Penicillin/Streptomycin and” for “Penicillin/Streptomycin. Cells were”
as §2

Where only a bound is given, the exact number is not on record here.

For orientation: EC50 means the concentration that produces a half-maximal response. For `C#CCn1cccc1C(=O)Nc1nc([C@H]2CCCN2c2ccccc2)cs1` [Compound C33, (R)-N-(4-(1-phenylpyrrolidin-2-yl)thiazol-2-yl)-1-(prop-2-yn-1-yl)-1H-pyrrole-2-carboxamide], the “Liver Microsome Stability (Multiple Species): Human - % Remaining after 30 min w/NADPH” value in data set [1] amounted to 54.7%. Besides, the “Liver Microsome Stability (Multiple Species): Monkey - % Remaining after 30 min w/NADPH” value in data set [2] is on record as 65%. Besides, the IC50 in data set [3] stood at 9.67 µM; in data set [6], 6.05 µM. For the same compound, the “Liver Microsome Stability (Multiple Species): Mouse - % Remaining after 30 min w/NADPH” value in data set [4] turned out to be 41.1%. Also, the EC50 in data set [5] was greater than 25 µM; in data set [8], 23.8 µM. Further, the “24 hr Dox Inducible IL2FLGluc 293FRT/TO: IL2/PD1” value in data set [6] worked out at 0.63. Moreover, in data set [7], the “Liver Microsome Stability (Multiple Species): Rat - % Remaining after 30 min w/NADPH” value came to 20.3%.

As to `O=C(Nc1nc([C@H]2CCCN2c2ccccc2)cs1)c1cccn1CC1CCS(=O)(=O)CC1` [Compound C37, (R)-1-((1,1-dioxidotetrahydro-2H-thiopyran-4-yl)methyl)-N-(4-(1-phenylpyrrolidin-2-yl)thiazol-2-yl)-1H-pyrrole-2-carboxamide], the “Liver Microsome Stability (Multiple Species): Human - % Remaining after 30 min w/NADPH” value in data set [1] is listed as 6.44%. In data set [2], the “Liver Microsome Stability (Multiple Species): Monkey - % Remaining after 30 min w/NADPH” value is on record as 8.58%. Further, the IC50 in data set [3] and in data set [6] was greater than 25 µM throughout. In data set [4], the “Liver Microsome Stability (Multiple Species): Mouse - % Remaining after 30 min w/NADPH” value worked out at 26%. The EC50 in data set [5] and in data set [8] was greater than 25 µM each time. In addition, in data set [7], the “Liver Microsome Stability (Multiple Species): Rat - % Remaining after 30 min w/NADPH” value worked out at 0.08%.

Consider `O=C(Nc1nc([C@H]2CCCN2c2ccccc2)cs1)c1cccn1CC1CCCCC1` [Compound C39, (R)-1-(cyclohexylmethyl)-N-(4-(1-phenylpyrrolidin-2-yl)thiazol-2-yl)-1H-pyrrole-2-carboxamide], for which the “Liver Microsome Stability (Multiple Species): Human - % Remaining after 30 min w/NADPH” value in data set [1] was found to be 79.7%. Besides, in data set [2], the “Liver Microsome Stability (Multiple Species): Monkey - % Remaining after 30 min w/NADPH” value amounted to 53.9%. Further, the results for the IC50 in data set [3] and in data set [6] were 2.75 µM and 3.35 µM, respectively. The “Liver Microsome Stability (Multiple Species): Mouse - % Remaining after 30 min w/NADPH” value in data set [4] was determined as 64.7%. For the same compound, the EC50 in data set [5] and in data set [8] was greater than 25 µM in each case. The “24 hr Dox Inducible IL2FLGluc 293FRT/TO: IL2/PD1” value in data set [6] is 1.2. For the same compound, in data set [7], the “Liver Microsome Stability (Multiple Species): Rat - % Remaining after 30 min w/NADPH” value is reported as 56.6%.

In the case of `N#Cc1cccc(Cn2cccc2C(=O)Nc2nc([C@H]3CCCN3c3ccccc3)cs2)c1` [Compound C49, (R)-1-(3-cyanobenzyl)-N-(4-(1-phenylpyrrolidin-2-yl)thiazol-2-yl)-1H-pyrrole-2-carboxamide], in data set [1], the “Liver Microsome Stability (Multiple Species): Human - % Remaining after 30 min w/NADPH” value worked out at 1.94%. Moreover, the “Liver Microsome Stability (Multiple Species): Monkey - % Remaining after 30 min w/NADPH” value in data set [2] is reported as 9.17%. Moreover, the IC50 was 0.909 µM in data set [3] and 1.64 µM in data set [6]. In data set [4], the “Liver Microsome Stability (Multiple Species): Mouse - % Remaining after 30 min w/NADPH” value was 29.1%. In addition, the EC50 in data set [5] and in data set [8] was greater than 25 µM throughout. The “24 hr Dox Inducible IL2FLGluc 293FRT/TO: IL2/PD1” value in data set [6] was determined as 1.8. For the same compound, in data set [7], the “Liver Microsome Stability (Multiple Species): Rat - % Remaining after 30 min w/NADPH” value was 2.9%.

Turning to `N#Cc1ccc(Cn2cccc2C(=O)Nc2nc([C@H]3CCCN3c3ccccc3)cs2)cc1` [Compound C50, (R)-1-(4-cyanobenzyl)-N-(4-(1-phenylpyrrolidin-2-yl)thiazol-2-yl)-1H-pyrrole-2-carboxamide], in data set [1], the “Liver Microsome Stability (Multiple Species): Human - % Remaining after 30 min w/NADPH” value is on record as 33.8%. For the same compound, the “Liver Microsome Stability (Multiple Species): Monkey - % Remaining after 30 min w/NADPH” value in data set [2] amounted to 33.4%. The IC50 in data set [3] came out at 3.14 µM; in data set [6], 2.06 µM. Besides, the “Liver Microsome Stability (Multiple Species): Mouse - % Remaining after 30 min w/NADPH” value in data set [4] came to 54.5%. Moreover, the EC50 in data set [5] and in data set [8] was greater than 25 µM in each case. Besides, the “24 hr Dox Inducible IL2FLGluc 293FRT/TO: IL2/PD1” value in data set [6] is 0.66. Besides, the “Liver Microsome Stability (Multiple Species): Rat - % Remaining after 30 min w/NADPH” value in data set [7] came to 15.1%.

`O=C(Nc1nc([C@H]2CCCN2c2ccccc2)cs1)c1cccn1CC1=CCOCC1` [Compound C57, (R)-1-((3,6-dihydro-2H-pyran-4-yl)methyl)-N-(4-(1-phenylpyrrolidin-2-yl)thiazol-2-yl)-1H-pyrrole-2-carboxamide]: in data set [1], the “Liver Microsome Stability (Multiple Species): Human - % Remaining after 30 min w/NADPH” value worked out at 4.2%. In addition, the “Liver Microsome Stability (Multiple Species): Monkey - % Remaining after 30 min w/NADPH” value in data set [2] is recorded as 3.43%. In addition, the figures for the IC50 in data set [3] and in data set [6] were 0.357 µM and 1.07 µM, respectively. Also, in data set [4], the “Liver Microsome Stability (Multiple Species): Mouse - % Remaining after 30 min w/NADPH” value is recorded as 9.54%. The figures for the EC50 in data set [5] and in data set [8] were greater than 25 µM and 23.3 µM, respectively. In data set [6], the “24 hr Dox Inducible IL2FLGluc 293FRT/TO: IL2/PD1” value was found to be 3. Further, in data set [7], the “Liver Microsome Stability (Multiple Species): Rat - % Remaining after 30 min w/NADPH” value is given as 0.43%.

Turning to `C#CCCn1cccc1C(=O)Nc1nc([C@H]2CCCN2c2ccccc2)cs1` [Compound C62, (R)-1-(but-3-yn-1-yl)-N-(4-(1-phenylpyrrolidin-2-yl)thiazol-2-yl)-1H-pyrrole-2-carboxamide], the “Liver Microsome Stability (Multiple Species): Human - % Remaining after 30 min w/NADPH” value in data set [1] came to 53%. In data set [2], the “Liver Microsome Stability (Multiple Species): Monkey - % Remaining after 30 min w/NADPH” value is 0.74%. Besides, the IC50 in data set [3] is 8.44 µM; in data set [6], greater than 25 µM. Besides, the “Liver Microsome Stability (Multiple Species): Mouse - % Remaining after 30 min w/NADPH” value in data set [4] worked out at 35.4%. Moreover, the concentration for a half-maximal effect (EC50) in data set [5] and in data set [8] was greater than 25 µM throughout. For the same compound, in data set [6], the “24 hr Dox Inducible IL2FLGluc 293FRT/TO: IL2/PD1” value was greater than 3.0. Moreover, the “Liver Microsome Stability (Multiple Species): Rat - % Remaining after 30 min w/NADPH” value in data set [7] was 8.75%.

As for `O=C(Nc1nc([C@H]2CCCN2c2ccccc2)cs1)c1cccn1Cc1cccnc1` [Compound E20, (R)-N-(4-(1-phenylpyrrolidin-2-yl)thiazol-2-yl)-1-(pyridin-3-ylmethyl)-1H-pyrrole-2-carboxamide], the “Liver Microsome Stability (Multiple Species): Human - % Remaining after 30 min w/NADPH” value in data set [1] is reported as 0.96%. In data set [2], the “Liver Microsome Stability (Multiple Species): Monkey - % Remaining after 30 min w/NADPH” value is listed as 0.62%. Moreover, the IC50 amounted to 2.52 µM in data set [3] and 5 µM in data set [6]. Further, in data set [4], the “Liver Microsome Stability (Multiple Species): Mouse - % Remaining after 30 min w/NADPH” value is 0.82%. Further, the figures for the EC50 in data set [5] and in data set [8] were 23.3 µM and 24.6 µM, respectively. Besides, the “24 hr Dox Inducible IL2FLGluc 293FRT/TO: IL2/PD1” value in data set [6] amounted to 2. Besides, in data set [7], the “Liver Microsome Stability (Multiple Species): Rat - % Remaining after 30 min w/NADPH” value was 0.14%.

Regarding `O=C(Nc1nc([C@H]2CCCN2c2ccccc2)cs1)c1ccc[nH]1` [Compound E58, (R)-N-(4-(1-phenylpyrrolidin-2-yl)thiazol-2-yl)-1H-pyrrole-2-carboxamide], the “Liver Microsome Stability (Multiple Species): Human - % Remaining after 30 min w/NADPH” value in data set [1] is on record as 26.7%. In data set [2], the “Liver Microsome Stability (Multiple Species): Monkey - % Remaining after 30 min w/NADPH” value was 7.34%. Besides, the figures for the IC50 in data set [3] and in data set [6] were 8.24 µM and greater than 25 µM, respectively. For the same compound, the “Liver Microsome Stability (Multiple Species): Mouse - % Remaining after 30 min w/NADPH” value in data set [4] worked out at 8.68%. Moreover, the EC50 in data set [5] and in data set [8] was greater than 25 µM in each case. Besides, the “24 hr Dox Inducible IL2FLGluc 293FRT/TO: IL2/PD1” value in data set [6] is greater than 3.0. The “Liver Microsome Stability (Multiple Species): Rat - % Remaining after 30 min w/NADPH” value in data set [7] was 1.33%.

The values above are taken from patent US20230286973A1, “PROTEIN SECRETION INHIBITORS” (KEZAR LIFE SCIENCES, priority 2020, published 2023).
